Experimental data published in patent publication US11091478B2 (Fochon Pharmaceuticals, Ltd., priority 2017, dated 2021).

Key:
[1] = test system: DOHH2 cells; assay: Cell proliferation assay (MTS), DOHH2 cells, 120 h; format: cell-based; conditions: Homo sapiens, DOHH-2, 120 h
Method in brief: (§1)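 RS4;11 and DOHH2 cells at 5000 cells/well in RPMI-1640 with 10% FBS were treated with compound at 1.5–10000 nM final, nine points, at 37 °C, 5% CO2. Exposure was 72 h for RS4;11 and 120 h for DOHH2. MTS was added for 2 h, absorbance read at 490/650 nm, and IC50 calculated.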

[2] = test system: RS4;11 cells; assay: Cell proliferation assay (MTS), RS4;11 cells, 72 h; format: cell-based; conditions: Homo sapiens, RS4-11, 72 h
Method in brief: as §1

| Compound | IC50 [1] [nM] | IC50 [2] [nM] |
| --- | --- | --- |
| C[C@@H]1CN(C[C@@H]2COc3cc(S(=O)(=O)NC(=O)c4ccc(N5CCN(CC6=C(c7ccc(Cl)cc7)CCC(C)(C)C6)CC5)cc4Oc4cnc5[nH]ccc5c4)cc([N+](=O)[O-])c3N2)CCN1C1COC1 [Example 2-210, 2-((1H-pyrrolo[2,3-b]pyridin-5-yl)oxy)-4-(4-((4′-chloro-4,4-dimethyl-3,4,5,6-tetrahydro-[1,1′-biphenyl]-2-yl)methyl)piperazin-1-yl)-N-(((R)-3-(((R)-3-methyl-4-(oxetan-3-yl)piperazin-1-yl)methyl)-5-nitro-3,4-dihydro-2H-benzo[b][1,4]oxazin-7-yl)sulfonyl) benzamide] | 35 | 7 |
| C[C@@H]1CN(C[C@H]2COc3cc(S(=O)(=O)NC(=O)c4ccc(N5CCN(CC6=C(c7ccc(Cl)cc7)CC(C)(C)CC6)CC5)cc4Oc4cnc5[nH]ccc5c4)cc([N+](=O)[O-])c3N2)CCN1C [Example 2-26, 2-((1H-pyrrolo[2,3-b]pyridin-5-yl)oxy)-4-(4-((4′-chloro-5,5-dimethyl-3,4,5,6-tetrahydro-[1,1′-biphenyl]-2-yl)methyl)piperazin-1-yl)-N-(((S)-3-(((R)-3,4-dimethylpiperazin-1-yl)methyl)-5-nitro-3,4-dihydro-2H-benzo [b][1,4]oxazin-7-yl)sulfonyl)benzamide] | 19 | 6 |
| CC1(C)CCC(CN2CCN(c3ccc(C(=O)NS(=O)(=O)c4cc5c(c([N+](=O)[O-])c4)N[C@@H](Cc4cccnc4)CO5)c(Oc4cnc5[nH]ccc5c4)c3)CC2)=C(c2ccc(Cl)cc2)C1 [Example 2-163, (S)-2-((1H-pyrrolo[2,3-b]pyridin-5-yl)oxy)-4-(4-((4′-chloro-5,5-dimethyl-3,4,5,6-tetra-hydro-[1,1′-biphenyl]-2-yl)methyl)piperazin-1-yl)-N-((5-nitro-3-(pyridin-3-ylmethyl)-3,4-dihydro-2H-benzo[b][1,4]oxazin-7-yl)sulfonyl)benzamide] | 53 | 29 |
| CC1(C)CCC(CN2CCN(c3ccc(C(=O)NS(=O)(=O)c4cc5c(c([N+](=O)[O-])c4)N[C@@H](C4CC4)CO5)c(Oc4cnc5[nH]ccc5c4)c3)CC2)=C(c2ccc(Cl)cc2)C1 [Example 2-114, (S)-2-((1H-pyrrolo[2,3-b]pyridin-5-yl)oxy)-4-(4-((4′-chloro-5,5-dimethyl-3,4,5,6-tetra-hydro-[1,1′-biphenyl]-2-yl)methyl)piperazin-1-yl)-N-((3-cyclopropyl-5-nitro-3,4-di-hydro-2H-benzo[b][1,4]oxazin-7-yl)sulfonyl)benzamide] | 48 | 1 |
| CC1(C)CCC(CN2CCN(c3ccc(C(=O)NS(=O)(=O)c4cc5c(c([N+](=O)[O-])c4)N[C@H](COC4CCOCC4)CO5)c(Oc4cnc5[nH]ccc5c4)c3)CC2)=C(c2ccc(Cl)cc2)C1 [Example 2-184, (R)-2-((1H-pyrrolo[2,3-b]pyridin-5-yl)oxy)-4-(4-((4′-chloro-5,5-dimethyl-3,4,5,6-tetra-hydro-[1,1′-biphenyl]-2-yl)methyl)piperazin-1-yl)-N-((5-nitro-3-(((tetrahydro-2H-pyran-4-yl)oxy)methyl)-3,4-dihydro-2H-benzo [b][1,4]oxazin-7-yl)sulfonyl)benzamide] | 11 | 3 |
| CC1(C)CCC(CN2CCN(c3ccc(C(=O)NS(=O)(=O)c4cc5c(c([N+](=O)[O-])c4)N[C@H](CC4CCN(S(C)(=O)=O)CC4)CO5)c(Oc4cnc5[nH]ccc5c4)c3)CC2)=C(c2ccc(Cl)cc2)C1 [Example 2-204, (R)-2-((1H-pyrrolo[2,3-b]pyridin-5-yl)oxy)-4-(4-((4′-chloro-5,5-dimethyl-3,4,5,6-tetra-hydro-[1,1′-biphenyl]-2-yl)methyl)piperazin-1-yl)-N-((3-((1-(methylsulfonyl)piperidin-4-yl)methyl)-5-nitro-3,4-dihydro-2H-benzo [b][1,4]oxazin-7-yl)sulfonyl)benzamide] | 17 | 26 |
| C[C@H]1CN(C[C@H]2COc3cc(S(=O)(=O)NC(=O)c4ccc(N5CCN(CC6=C(c7ccc(Cl)cc7)CC(C)(C)CC6)CC5)cc4Oc4cnc5[nH]ccc5c4)cc([N+](=O)[O-])c3N2)CCN1C1COC1 [Example 2-30] | 8 | 1 |
| CC1(C)CCC(CN2CCN(c3ccc(C(=O)NS(=O)(=O)c4cc5c(c([N+](=O)[O-])c4)N[C@@H](CCS(C)(=O)=O)CS5)c(Oc4cnc5[nH]ccc5c4)c3)CC2)=C(c2ccc(Cl)cc2)C1 [Example 3-18, (S)-2-((1H-pyrrolo[2,3-b]pyridin-5-yl)oxy)-4-(4-((4′-chloro-5,5-dimethyl-3,4,5,6-tetra-hydro-[1,1′-biphenyl]-2-yl)methyl)piperazin-1-yl)-N-((3-(2-(methylsulfonyl)ethyl)-5-nitro-3,4-dihydro-2H-benzo[b][1,4]thiazin-7-yl)sulfonyl)benzamide] | 54 | 20 |
| CN1CCN(CC[C@@H]2Cc3cc(S(=O)(=O)NC(=O)c4ccc(N5CCN(CC6=C(c7ccc(Cl)cc7)CC(C)(C)CC6)CC5)cc4Oc4cnc5[nH]ccc5c4)cc([N+](=O)[O-])c3N2)CC1 [Example 1-12, (S)-2-((1H-pyrrolo[2,3-b]pyridin-5-yl)oxy)-4-(4-((4′-chloro-5,5-dimethyl-3,4,5,6-tetra-hydro-[1,1′-biphenyl]-2-yl)methyl)piperazin-1-yl)-N-((2-(2-(4-methylpiperazin-1-yl)eth-yl)-7-nitroindolin-5-yl)sulfonyl)benzamide] | 299 | 58 |
| CC1(C)CCC(CN2CCN(c3ccc(C(=O)NS(=O)(=O)c4cc5c(c([N+](=O)[O-])c4)N[C@@H](Cc4ccc(F)cc4)CO5)c(Oc4cnc5[nH]ccc5c4)c3)CC2)=C(c2ccc(Cl)cc2)C1 [Example 2-190, (S)-2-((1H-pyrrolo[2,3-b]pyridin-5-yl)oxy)-4-(4-((4′-chloro-5,5-dimethyl-3,4,5,6-tetra-hydro-[1,1′-biphenyl]-2-yl)methyl)piperazin-1-yl)-N-((3-(4-fluorobenzyl)-5-nitro-3,4-dihydro-2H-benzo[b][1,4]oxazin-7-yl)sulfo-nyl)benzamide] | 25 | 8 |
| COC[C@@H]1COc2cc(S(=O)(=O)NC(=O)c3ccc(N4CCN(CC5=C(c6ccc(Cl)cc6)CC(C)(C)CC5)CC4)cc3Oc3cnc4[nH]ccc4c3)cc([N+](=O)[O-])c2N1 [Example 2-110, (R)-2-((1H-pyrrolo[2,3-b]pyridin-5-yl)oxy)-4-(4-((4′-chloro-5,5-dimethyl-3,4,5,6-tetra-hydro-[1,1′-biphenyl]-2-yl)methyl)piperazin-1-yl)-N-((3-(methoxymethyl)-5-nitro-3,4-dihydro-2H-benzo[b][1,4]oxazin-7-yl)sulfo-nyl)benzamide] | 96 | 2 |
| CC1(C)CCC(CN2CCN(c3ccc(C(=O)NS(=O)(=O)c4cc5c(c([N+](=O)[O-])c4)N[C@H](c4ccccn4)CO5)c(Oc4cnc5[nH]ccc5c4)c3)CC2)=C(c2ccc(Cl)cc2)C1 [Example 2-177, (R)-2-((1H-pyrrolo[2,3-b]pyridin-5-yl)oxy)-4-(4-((4′-chloro-5,5-dimethyl-3,4,5,6-tetra-hydro-[1,1′-biphenyl]-2-yl)methyl)piperazin-1-yl)-N-((5-nitro-3-(pyridin-2-yl)-3,4-di-hydro-2H-benzo[b][1,4]oxazin-7-yl)sulfonyl) benzamide] | 119 | 13 |
| C[C@@H]1CN(CC[C@H]2COc3cc(S(=O)(=O)NC(=O)c4ccc(N5CCN(CC6=C(c7ccc(Cl)cc7)CC(C)(C)CC6)CC5)cc4Oc4cnc5[nH]ccc5c4)cc([N+](=O)[O-])c3N2)CCN1C1COC1 [Example 2-49, 2-((1H-pyrrolo[2,3-b]pyridin-5-yl)oxy)-4-(4-((4′-chloro-5,5-dimethyl-3,4,5,6-tetrahydro-[1,1′-biphenyl]-2-yl)methyl)piperazin-1-yl)-N-(((S)-3-(2-((R)-3-methyl-4-(oxetan-3-yl)piperazin-1-yl)ethyl)-5-nitro-3,4-dihydro-2H-benzo[b][1,4]oxazin-7-yl)sulfonyl) benzamide] | 12 | 16 |
| CC1(C)CCC(CN2CCN(c3ccc(C(=O)NS(=O)(=O)c4cc5c(c([N+](=O)[O-])c4)N[C@H](CC4CCOCC4)CO5)c(Oc4cnc5[nH]ccc5c4)c3)CC2)=C(c2ccc(Cl)cc2)C1 [Example 2-181, (R)-2-((1H-pyrrolo[2,3-b]pyridin-5-yl)oxy)-4-(4-((4′-chloro-5,5-dimethyl-3,4,5,6-tetra-hydro-[1,1′-biphenyl]-2-yl)methyl)piperazin-1-yl)-N-((5-nitro-3-((tetrahydro-2H-pyran-4-yl)methyl)-3,4-dihydro-2H-benzo[b] [1,4]oxazin-7-yl)sulfonyl)benzamide] | 84 | 45 |
| CN(C)C[C@@H]1Cc2cc(S(=O)(=O)NC(=O)c3ccc(N4CCN(CC5=C(c6ccc(Cl)cc6)CC(C)(C)CC5)CC4)cc3Oc3cnc4[nH]ccc4c3)cc([N+](=O)[O-])c2N1 [Example 1-5] | 211 | 51 |
| CC1(C)CCC(c2ccc(Cl)cc2)=C(CN2CCN(c3ccc(C(=O)NS(=O)(=O)c4cc5c(c([N+](=O)[O-])c4)N[C@H](COC4CCOCC4)CO5)c(Oc4cnc5[nH]ccc5c4)c3)CC2)C1 [Example 2-234, (R)-2-((1H-pyrrolo[2,3-b]pyridin-5-yl)oxy)-4-(4-((4′-chloro-4,4-dimethyl-3,4,5,6-tetra-hydro-[1,1′-biphenyl]-2-yl)methyl)piperazin-1-yl)-N-((5-nitro-3-(((tetrahydro-2H-pyran-4-yl)oxy)methyl)-3,4-dihydro-2H-benzo [b][1,4]oxazin-7-yl)sulfonyl)benzamide] | 6 | 14 |
